Source: patent US5180665A, “Method for quantitatively assaying the presence of diarrhetic shellfish poisoning toxins in marine samples” (priority 1990, dated 1993)
Where two headings read alike, the source gives them in different places. Numbered stars: 1 amine (or outer) side, 2 acyl side, 3 side chain; on linkers, the order of the positions; unused ones are H or OH. Bridge positions count the residues as written; N and C are the ends. Square brackets hold non-standard residues; d marks the D form. Peptide text beside a SMILES is read from it. Adda = CO[C@@H](Cc1ccccc1)[C@@H](C)/C=C(C)/C=C/[C@H](N[*:1])[C@H](C)C(=O)[*:2]; dAsp(3S-Me) = C[C@H](C(=O)[*:3])[C@@H](N[*:1])C(=O)[*:2]; d(γGlu) = O=C(O)[C@@H](CCC(=O)[*:2])N[*:1]; NMeDha = C=C(NC)C(=O)O

Columns and labels:
[1] = test system: protein phosphatase-1 (PP1) catalytic subunit; assay: Standard phosphorylase a phosphatase assay, inhibition of PP1 catalytic subunit; type: biochemical, rabbit; conditions: for inhibition of PP1: result in words
[2] = target: T1, protein phosphatase-2A (PP2A) catalytic subunit (Oryctolagus cuniculus, UniProt P67777); assay: Standard phosphorylase a phosphatase assay, inhibition of PP2A catalytic subunit; type: biochemical, rabbit; conditions: for inhibition of PP2A: result in words
T1 construct: Homogeneous PP-1 and -2A catalytic subunits were purified from rabbit skeletal muscle; from tissue; host or cells: rabbit skeletal muscle

[3] = test system: protein phosphatase-1 (PP1); conditions: literature, result in words; cited from earlier work
[4] = test system: protein phosphatase-2A (PP2A); conditions: literature, result in words; cited from earlier work
mouse skin = conditions: cited from earlier work
PP1/PP2A = assay: LC-linked protein phosphatase bioassay, cross-reactivity; type: biochemical, rabbit; conditions: result in words

T1 sequence (P67777 whole entry): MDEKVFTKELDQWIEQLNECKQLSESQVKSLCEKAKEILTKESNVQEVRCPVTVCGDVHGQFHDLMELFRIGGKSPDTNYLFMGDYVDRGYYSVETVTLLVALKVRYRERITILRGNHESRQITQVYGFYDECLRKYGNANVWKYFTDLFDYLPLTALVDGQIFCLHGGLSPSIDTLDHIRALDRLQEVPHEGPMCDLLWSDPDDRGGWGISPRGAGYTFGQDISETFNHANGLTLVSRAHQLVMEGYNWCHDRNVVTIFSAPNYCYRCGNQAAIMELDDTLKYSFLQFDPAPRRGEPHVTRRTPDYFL

What does the source list for CO[C@@H]1C[C@@H](C[C@H]2CC[C@H](C)[C@H]([C@@H](C)C(=O)O)O2)O[C@]2(O[C@](C)([C@H]3CC[C@@](C)([C@@H]4O[C@@H]([C@H]5O[C@@](O)(CO)[C@H](C)C[C@@H]5C)C[C@@H]4C)O3)C[C@H]2C)[C@@H]1C [nigericin]?
inhibition of PP1 [1]: not inhibited; inhibition of PP2A [2]: not inhibited

With C=C1C(=O)N[C@H](C)C(=O)N[C@@H](CC(C)C)C(=O)N[C@@H](C(=O)O)[C@H](C)C(=O)N[C@@H](CCCNC(=N)N)C(=O)N[C@@H](/C=C/C(C)=C/[C@H](C)[C@H](Cc2ccccc2)OC)[C@H](C)C(=O)N[C@@H](C(=O)O)CCC(=O)N1C [Microcystin-LR] (R[Adda][d(γGlu)][NMeDha][dA]L[dAsp(3S-Me)]-OH; lactam N-7) as the molecule, how does the IC50 ([1]; pH 7) read?
Its IC50 is 0.1 nM.

What about the IC50 ([2]; pH 7, read-out: IC50 for PP2A inhibition) of the same molecule?
Its IC50 is 0.1 nM.

Which results are given for CC[C@@H](C(=O)[C@@H](C)[C@@H](O)[C@H](C)[C@@H]1O[C@@H]([C@@H](CC)C(=O)O)CC[C@@H]1C)[C@H]1O[C@]2(C=C[C@@H](O)[C@]3(CC[C@@](C)([C@H]4CC[C@](O)(CC)[C@H](C)O4)O3)O2)[C@H](C)C[C@@H]1C [salinomycin]?
inhibition of PP1 [1]: not inhibited; inhibition of PP2A [2]: not inhibited

For CC[C@@]1([C@@H]2O[C@@H]([C@H]3O[C@@](O)(CO)[C@H](C)C[C@@H]3C)C[C@@H]2C)CC[C@H]([C@]2(C)CC[C@]3(C[C@H](O)[C@@H](C)[C@@H]([C@@H](C)[C@@H](OC)[C@H](C)C(=O)O)O3)O2)O1 [monensin], which “inhibition of PP1” value [1] is on record?
Its value is “not inhibited”.

What about the “inhibition of PP2A” value [2] of the same molecule?
Its value is “not inhibited”.

With C=C1[C@@H](O)[C@@H]2O[C@]3(CC[C@H](/C=C/[C@@H](C)[C@@H]4CC(C)=C[C@@]5(O[C@H](C[C@@](C)(O)C(=O)O)CC[C@H]5O)O4)O3)CC[C@H]2O[C@@H]1[C@@H](O)C[C@H](C)[C@H]1O[C@@]2(CCCCO2)CC[C@H]1C [okadaic acid] as the molecule, how does the IC50 ([1]; standard phosphorylase a phosphatase assay, 1 mU/ml PP1, pH 7.0, 30° C.) read?
Its IC50 is 19 nM.

What about the IC50 ([2]; PP2A diluted to 0.03 mU/ml in the standard assay, read-out: IC50 for okadaic acid with diluted PP2A) of the same molecule?
Its IC50 is 0.04 nM.

What about the “fold stronger inhibition of PP2A than PP1” value ([2]; PP2A relative to PP1, standard assay) of the same molecule?
The value was 90(+10) fold.

What about the “inhibitor of protein phosphatase-1” value [3] of the same molecule?
The value was “potent and specific inhibitor”.

What about the “inhibitor of protein phosphatase-2A” value [4] of the same molecule?
Its value is “potent and specific inhibitor”.

What about the tumour promotion (mouse skin; result in words) of the same molecule?
The tumour promotion was “powerful tumour promoters”.

And the “tumour promoting potency compared with phorbol esters” value (mouse skin; two-stage carcinogenesis, mouse skin, versus phorbol esters)?
Its value is “comparable potency”.

For CO[C@@H]1[C@@H](OC)[C@H](C)[C@@](O)(CC(=O)O)O[C@H]1[C@H](C)[C@H]1O[C@@]2(CC[C@@](C)([C@H]3CC[C@@](C)([C@@H]4O[C@@H]([C@H]5O[C@](C)(O)[C@H](C)C[C@@H]5C)C[C@@H]4O[C@@H]4C[C@H](OC)[C@@H](OC)[C@H](C)O4)O3)O2)C[C@H](O)[C@H]1C [maduramycin], which “inhibition of PP1” value [1] is on record?
Its value is “not inhibited”.

What about the “inhibition of PP2A” value [2] of the same molecule?
The value was “not inhibited”.

With C/C(=C/C=C/[C@@H](C)C(=O)O)[C@H]1CN[C@H](C(=O)O)[C@H]1CC(=O)O [domoic acid] as the molecule, how does the “cross-reactivity in the LC-linked protein phosphatase bioassay” value (PP1/PP2A) read?
Its value is “does not cross-react”.

Which “fold stronger inhibition of PP2A than PP1” value ([2]; rabbit) does the source give for dinophysistoxin-1 here?
Its value is 90(+10) fold.

And the “tumour promoting potency compared with phorbol esters” value (mouse skin; mouse, in vivo)?
Its value is “comparable potency”.

What about the tumour promotion (mouse skin; mouse, in vivo) of the same molecule?
Its tumour promotion is “powerful tumour promoters”.
